Data from the supplement of paper PMC10307832.

What was measured:
Test in all cases: relative viability (nuclei count vs DMSO), 5 days (fraction); higher = more cells survive
Decitabine + Trametinib = compound: Nc1ncn([C@H]2C[C@H](O)[C@@H](CO)O2)c(=O)n1 [Decitabine] + CC(=O)Nc1cccc(-n2c(=O)n(C3CC3)c(=O)c3c(Nc4ccc(I)cc4F)n(C)c(=O)c(C)c32)c1 [Trametinib] (partner 0.02 µM)
How it was run: (§1)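 Relative viability equals treated-well nuclei counts divided by vehicle-well nuclei counts. Counts came from 4× images of lung cancer cell lines grown in 1536-well plates for 5 days after pin-tool dosing on the day after seeding. Dosing used one drug alone or a fixed anchor-drug dose plus five library-drug doses (not always all listed) in √10 steps, and values are medians of duplicate plates.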

Decitabine + Phenformin = compound: Nc1ncn([C@H]2C[C@H](O)[C@@H](CO)O2)c(=O)n1 [Decitabine] + N=C(N)NC(=N)NCCc1ccccc1 [Phenformin] (partner 250 µM)
How it was run: as §1

Decitabine + Pemetrexed = compound: Nc1ncn([C@H]2C[C@H](O)[C@@H](CO)O2)c(=O)n1 [Decitabine] + Nc1nc2[nH]cc(CCc3ccc(C(=O)N[C@@H](CCC(=O)O)C(=O)O)cc3)c2c(=O)[nH]1 [Pemetrexed] (partner 0.2 µM)
How it was run: as §1

[1] = compound: O=C(C[C@H]1NCCC[C@@H]1O)Cn1cnc2cc(Br)c(Cl)cc2c1=O (racemic) [Halofuginone] + Nc1ncn([C@H]2C[C@H](O)[C@@H](CO)O2)c(=O)n1 [Decitabine] (partner 2 µM)
How it was run: as §1

NCI-H520
relative viability (Decitabine + Trametinib; first compound 0.04 µM): 0.529 | relative viability (Decitabine + Trametinib; first compound 0.1265 µM): 0.349 | relative viability (Decitabine + Trametinib; first compound 0.4 µM): 0.424 | relative viability (Decitabine + Trametinib; first compound 1.265 µM): 0.307 | relative viability (Decitabine + Trametinib; first compound 4 µM): 0.266 | relative viability (Decitabine + Phenformin; first compound 0.04 µM): 0.42 | relative viability (Decitabine + Phenformin; first compound 0.1265 µM): 0.347 | relative viability (Decitabine + Phenformin; first compound 0.4 µM): 0.37 | relative viability (Decitabine + Phenformin; first compound 1.265 µM): 0.328 | relative viability (Decitabine + Phenformin; first compound 4 µM): 0.288 | relative viability (Decitabine + Pemetrexed; first compound 0.04 µM): 0.545 | relative viability (Decitabine + Pemetrexed; first compound 0.1265 µM): 0.468 | relative viability (Decitabine + Pemetrexed; first compound 0.4 µM): 0.477 | relative viability (Decitabine + Pemetrexed; first compound 1.265 µM): 0.317 | relative viability (Decitabine + Pemetrexed; first compound 4 µM): 0.293 | relative viability ([1]; first compound 0.001 µM): 0.529 | relative viability ([1]; first compound 0.003162 µM): 0.498 | relative viability ([1]; first compound 0.01 µM): 0.579 | relative viability ([1]; first compound 0.03162 µM): 0.607 | relative viability ([1]; first compound 0.1 µM): 0.347

NCI-H2347
relative viability (Decitabine + Trametinib; first compound 0.04 µM): 0.295 | relative viability (Decitabine + Trametinib; first compound 0.1265 µM): 0.334 | relative viability (Decitabine + Trametinib; first compound 0.4 µM): 0.267 | relative viability (Decitabine + Trametinib; first compound 1.265 µM): 0.257 | relative viability (Decitabine + Trametinib; first compound 4 µM): 0.287 | relative viability (Decitabine + Phenformin; first compound 0.04 µM): 0.472 | relative viability (Decitabine + Phenformin; first compound 0.1265 µM): 0.384 | relative viability (Decitabine + Phenformin; first compound 0.4 µM): 0.413 | relative viability (Decitabine + Phenformin; first compound 1.265 µM): 0.467 | relative viability (Decitabine + Phenformin; first compound 4 µM): 0.326 | relative viability (Decitabine + Pemetrexed; first compound 0.04 µM): 0.401 | relative viability (Decitabine + Pemetrexed; first compound 0.1265 µM): 0.396 | relative viability (Decitabine + Pemetrexed; first compound 0.4 µM): 0.382 | relative viability (Decitabine + Pemetrexed; first compound 1.265 µM): 0.366 | relative viability (Decitabine + Pemetrexed; first compound 4 µM): 0.386 | relative viability ([1]; first compound 0.001 µM): 0.595 | relative viability ([1]; first compound 0.003162 µM): 0.676 | relative viability ([1]; first compound 0.01 µM): 0.567 | relative viability ([1]; first compound 0.03162 µM): 0.65 | relative viability ([1]; first compound 0.1 µM): 0.659

NCI-H441
relative viability (Decitabine + Trametinib; first compound 0.04 µM): 0.317 | relative viability (Decitabine + Trametinib; first compound 0.1265 µM): 0.281 | relative viability (Decitabine + Trametinib; first compound 0.4 µM): 0.255 | relative viability (Decitabine + Trametinib; first compound 1.265 µM): 0.183 | relative viability (Decitabine + Trametinib; first compound 4 µM): 0.206 | relative viability (Decitabine + Phenformin; first compound 0.04 µM): 0.494 | relative viability (Decitabine + Phenformin; first compound 0.1265 µM): 0.428 | relative viability (Decitabine + Phenformin; first compound 0.4 µM): 0.306 | relative viability (Decitabine + Phenformin; first compound 1.265 µM): 0.289 | relative viability (Decitabine + Phenformin; first compound 4 µM): 0.231 | relative viability (Decitabine + Pemetrexed; first compound 0.04 µM): 0.214 | relative viability (Decitabine + Pemetrexed; first compound 0.1265 µM): 0.203 | relative viability (Decitabine + Pemetrexed; first compound 0.4 µM): 0.184 | relative viability (Decitabine + Pemetrexed; first compound 1.265 µM): 0.197 | relative viability (Decitabine + Pemetrexed; first compound 4 µM): 0.235 | relative viability ([1]; first compound 0.001 µM): 0.29 | relative viability ([1]; first compound 0.003162 µM): 0.262 | relative viability ([1]; first compound 0.01 µM): 0.262 | relative viability ([1]; first compound 0.03162 µM): 0.275 | relative viability ([1]; first compound 0.1 µM): 0.234

NCI-H2342
relative viability (Decitabine + Trametinib; first compound 0.04 µM): 0.959 | relative viability (Decitabine + Trametinib; first compound 0.1265 µM): 1.03 | relative viability (Decitabine + Trametinib; first compound 0.4 µM): 0.88 | relative viability (Decitabine + Trametinib; first compound 1.265 µM): 0.606 | relative viability (Decitabine + Trametinib; first compound 4 µM): 0.72 | relative viability (Decitabine + Phenformin; first compound 0.04 µM): 0.597 | relative viability (Decitabine + Phenformin; first compound 0.1265 µM): 0.732 | relative viability (Decitabine + Phenformin; first compound 0.4 µM): 0.511 | relative viability (Decitabine + Phenformin; first compound 1.265 µM): 0.514 | relative viability (Decitabine + Phenformin; first compound 4 µM): 0.535 | relative viability (Decitabine + Pemetrexed; first compound 0.04 µM): 0.734 | relative viability (Decitabine + Pemetrexed; first compound 0.1265 µM): 0.733 | relative viability (Decitabine + Pemetrexed; first compound 0.4 µM): 0.731 | relative viability (Decitabine + Pemetrexed; first compound 1.265 µM): 0.642 | relative viability (Decitabine + Pemetrexed; first compound 4 µM): 0.663 | relative viability ([1]; first compound 0.001 µM): 0.664 | relative viability ([1]; first compound 0.003162 µM): 0.724 | relative viability ([1]; first compound 0.01 µM): 0.722 | relative viability ([1]; first compound 0.03162 µM): 0.671 | relative viability ([1]; first compound 0.1 µM): 0.685

NCI-H1944
relative viability (Decitabine + Trametinib; first compound 0.04 µM): 0.435 | relative viability (Decitabine + Trametinib; first compound 0.1265 µM): 0.441 | relative viability (Decitabine + Trametinib; first compound 0.4 µM): 0.369 | relative viability (Decitabine + Trametinib; first compound 1.265 µM): 0.254 | relative viability (Decitabine + Trametinib; first compound 4 µM): 0.256 | relative viability (Decitabine + Phenformin; first compound 0.04 µM): 0.191 | relative viability (Decitabine + Phenformin; first compound 0.1265 µM): 0.21 | relative viability (Decitabine + Phenformin; first compound 0.4 µM): 0.227 | relative viability (Decitabine + Phenformin; first compound 1.265 µM): 0.166 | relative viability (Decitabine + Phenformin; first compound 4 µM): 0.199 | relative viability (Decitabine + Pemetrexed; first compound 0.04 µM): 0.438 | relative viability (Decitabine + Pemetrexed; first compound 0.1265 µM): 0.448 | relative viability (Decitabine + Pemetrexed; first compound 0.4 µM): 0.288 | relative viability (Decitabine + Pemetrexed; first compound 1.265 µM): 0.228 | relative viability (Decitabine + Pemetrexed; first compound 4 µM): 0.211 | relative viability ([1]; first compound 0.001 µM): 0.4 | relative viability ([1]; first compound 0.003162 µM): 0.435 | relative viability ([1]; first compound 0.01 µM): 0.396 | relative viability ([1]; first compound 0.03162 µM): 0.407 | relative viability ([1]; first compound 0.1 µM): 0.451

NCI-H2405
relative viability (Decitabine + Trametinib; first compound 0.04 µM): 0.575 | relative viability (Decitabine + Trametinib; first compound 0.1265 µM): 0.732 | relative viability (Decitabine + Trametinib; first compound 0.4 µM): 0.645 | relative viability (Decitabine + Trametinib; first compound 1.265 µM): 0.493 | relative viability (Decitabine + Trametinib; first compound 4 µM): 0.407 | relative viability (Decitabine + Phenformin; first compound 0.04 µM): 0.388 | relative viability (Decitabine + Phenformin; first compound 0.1265 µM): 0.39 | relative viability (Decitabine + Phenformin; first compound 0.4 µM): 0.408 | relative viability (Decitabine + Phenformin; first compound 1.265 µM): 0.321 | relative viability (Decitabine + Phenformin; first compound 4 µM): 0.366 | relative viability (Decitabine + Pemetrexed; first compound 0.04 µM): 0.851 | relative viability (Decitabine + Pemetrexed; first compound 0.1265 µM): 0.998 | relative viability (Decitabine + Pemetrexed; first compound 0.4 µM): 0.787 | relative viability (Decitabine + Pemetrexed; first compound 1.265 µM): 0.632 | relative viability (Decitabine + Pemetrexed; first compound 4 µM): 0.524 | relative viability ([1]; first compound 0.001 µM): 0.74 | relative viability ([1]; first compound 0.003162 µM): 0.781 | relative viability ([1]; first compound 0.01 µM): 0.767 | relative viability ([1]; first compound 0.03162 µM): 0.722 | relative viability ([1]; first compound 0.1 µM): 0.632

HCC-15
relative viability (Decitabine + Trametinib; first compound 0.04 µM): 0.4 | relative viability (Decitabine + Trametinib; first compound 0.1265 µM): 0.399 | relative viability (Decitabine + Trametinib; first compound 0.4 µM): 0.353 | relative viability (Decitabine + Trametinib; first compound 1.265 µM): 0.338 | relative viability (Decitabine + Trametinib; first compound 4 µM): 0.313 | relative viability (Decitabine + Phenformin; first compound 0.04 µM): 0.448 | relative viability (Decitabine + Phenformin; first compound 0.1265 µM): 0.49 | relative viability (Decitabine + Phenformin; first compound 0.4 µM): 0.252 | relative viability (Decitabine + Phenformin; first compound 1.265 µM): 0.327 | relative viability (Decitabine + Phenformin; first compound 4 µM): 0.333 | relative viability (Decitabine + Pemetrexed; first compound 0.04 µM): 0.2 | relative viability (Decitabine + Pemetrexed; first compound 0.1265 µM): 0.207 | relative viability (Decitabine + Pemetrexed; first compound 0.4 µM): 0.179 | relative viability (Decitabine + Pemetrexed; first compound 1.265 µM): 0.19 | relative viability (Decitabine + Pemetrexed; first compound 4 µM): 0.191 | relative viability ([1]; first compound 0.001 µM): 0.647 | relative viability ([1]; first compound 0.003162 µM): 0.71 | relative viability ([1]; first compound 0.01 µM): 0.747 | relative viability ([1]; first compound 0.03162 µM): 0.676 | relative viability ([1]; first compound 0.1 µM): 0.482
